Measurements from ChEMBL document CHEMBL1132184, “Two-stage method for protein-ligand docking” (J Med Chem, 1999).

Biological target: Prothrombin (Homo sapiens, UniProt P00734)
Assay: Binding affinity against thrombin

## N=C(N)C[C@H]1CC[C@@H](NC(=O)[C@@H]2CCCN2C(=O)[C@@H](Cc2ccccc2)NS(=O)(=O)Cc2ccccc2)CC1
  Ki: 270 pM
